Measured values reported in patent publication US20250360113A1, “ADMINISTRATION OF DHB TO INCREASE BENEFIT OF LOSING WEIGHT OF INTERMITTENT FASTING” (NANJING NUTRABUILDING BIO-TECH CO., LTD., priority 2023, published 2025).

Experiments:
[1] = Plasma TCHO, TG, LDL, VLDL measured with kits at end of study; type: in vivo, C57BL/6 male mice; conditions: HFD obese mice, DHB 70 mg/kg i.g. daily with or without EODF vs no DHB
Protocol: (§1) 50 C57BL/6 male mice aged about 8 weeks, are randomly assigned to five study groups (GA, GB1, GB2, GB3, GB4) of ten mice each (one cage, n=5 per condition). Mice were maintained in a pathogen free condition under a strict 12 h light/dark cycle (0600/1800 h) with 12-15 cycles/hour of air change. Mice were provided with access to respective feed and water ad libitum as per experimental conditions. Mice were housed under controlled laboratory conditions of temperature and humidity at 23±2° C. and 50±10% RH, respectively. Each study group consisted of ten animals, and treatment details of the individual study groups are given below: • Group A (GA, NC): Normal mice, maintained on normal diet (standard chow, 12% calories from fat; 23% calories from protein and 65% calories from carbohydrates) for 8 weeks, receiving neither EODF nor DHB treatment. • Group B1 (GB1): Obese mice, maintained on high fat diet (HFD, 60% calories from fat, 20% calories from protein, 20% calories from carbohydrate) for 8 weeks, receiving neither EODF nor DHB treatment. • Group B2 (GB2): Obese mice, maintained on HFD for 8 weeks, receiving only EODF and no DHB treatment. • Group B3 (GB3): Obese mice, maintained on HFD for 8 weeks, receiving only DHB treatment and no EODF. • Group B4 (GB4): Obese mice, maintained on HFD for 8 weeks, receiving DHB treatment and EODF combination. DHB was administered daily via intragastric injection (i.g.) according to a level of 70 mg/kg body weight. Mice not receiving DHB were given orally with ultrapure water. At the end of the study blood was collected from all test groups and a various clinical parameter: plasma total cholesterol (TCHO), triglyceride (TG), low density lipoprotein (LDL), very low-density lipoprotein (VLDL) were measured using corresponding kits according to the manufacturers' instructions.

ADRB3 = experiment: mRNA levels of ADRB3 from inguinal WAT by qRT-PCR; type: in vivo, C57BL/6 male mice; conditions: HFD obese mice
Protocol: as §1, with “The mRNA levels” for “At the end”, “ADRB3 protein” for “the study blood was collected”, “inguinal WAT” for “all test groups and a various clinical parameter: plasma total cholesterol (TCHO), triglyceride (TG), low density lipoprotein (LDL), very low-density lipoprotein (VLDL)”, “determined by qRT-PCR.” for “measured using corresponding kits according to the manufacturers' instructions.”

[2] = in vitro; cited from earlier work
[3] = Serum insulin and leptin by ELISA at end of treatment; type: in vivo, C57BL/6 male mice; conditions: HFD obese mice
Protocol: 50 C57BL/6 male mice aged about 8 weeks, are randomly assigned to five study groups (GA, GB1, GB2, GB3, GB4) of ten mice each (one cage, n=5 per condition). Mice were maintained in a pathogen free condition under a strict 12 h light/dark cycle (0600/1800 h) with 12-15 cycles/hour of air change. Mice were provided with access to respective feed and water ad libitum as per experimental conditions. Mice were housed under controlled laboratory conditions of temperature and humidity at 23±2° C. and 50±10% RH, respectively. Each study group consisted of ten animals, and treatment details of the individual study groups are given below: • Group A (GA, NC): Normal mice, maintained on normal diet (standard chow, 12% calories from fat; 23% calories from protein and 65% calories from carbohydrates) for 8 weeks, receiving neither EODF nor DHB treatment. • Group B1 (GB1): Obese mice, maintained on high fat diet (HFD, 60% calories from fat, 20% calories from protein, 20% calories from carbohydrate) for 8 weeks, receiving neither EODF nor DHB treatment. • Group B2 (GB2): Obese mice, maintained on HFD for 8 weeks, receiving only EODF and no DHB treatment. • Group B3 (GB3): Obese mice, maintained on HFD for 8 weeks, receiving only DHB treatment and no EODF. • Group B4 (GB4): Obese mice, maintained on HFD for 8 weeks, receiving DHB treatment and EODF combination. DHB was administered daily via intragastric injection (i.g.) according to a level of 70 mg/kg body weight. Mice not receiving DHB were given orally with ultrapure water. Serum levels of insulin and leptin were determined at the end of the treatment period by standard ELISA methods. Since one key feature of obesity is the development of insulin and leptin resistance resulting in an elevation of the circulating levels of these two hormones as a consequence of compensatory physiological responses to insulin and leptin insensitivity, thus leptin is one of the major adipocytokines associated with maintaining glucose homeostasis.

[4] = mice, including mice lacking the intestinal bacteria needed to break down BBR; cited from earlier work
[5] = DHB 70 mg/kg i.g. daily with or without EODF vs no DHB
[6] = DHB + EODF combination vs EODF only

COc1ccc2c(c1OC)CN1CCc3cc4c(cc3C1=C2)OCO4 [DHB, Dihydroberberine]
TG ([1]; FIG. 5): lower levels
TCHO ([1]; FIG. 6): lower levels
LDL ([1]; FIG. 7): lower levels
VLDL ([1]; FIG. 8): lower levels
ADRB3 abundance (mRNA, inguinal WAT) (ADRB3; [5]): increasing
lipolysis specifically in WAT (ADRB3; [5]): upregulated
triggering lipolysis specifically in WAT (ADRB3; [6]): greater effects
intestinal absorption rate relative to BBR [2]: five times higher
insulin resistance (serum levels of insulin) ([3]; DHB 70 mg/kg i.g. daily with or without EODF vs no DHB, FIG. 9): improved
leptin resistance (serum levels of leptin) ([3]; DHB 70 mg/kg i.g. daily with or without EODF vs no DHB, FIG. 10): improved
improving insulin resistance [3, 6]: greater effects
improving leptin resistance [3, 6]: greater effects
absorption compared with BBR [4]: better absorbed
